In ChEMBL document CHEMBL2401712, “Fused thiazolyl alkynes as potent mGlu5 receptor positive allosteric modulators” (Bioorg Med Chem Lett, 2013):

Tests used:
Type in all cases: cell-based
[1] = target: T1, Metabotropic glutamate receptor 5 (Homo sapiens, UniProt P41594); experiment: Negative allosteric modulation of human mGlu5 receptor expressed in HEK293 cells assessed as inhibition of L-glutamate-induced activity after 1 hr by FLIPR assay relative to control; parameters: concentration or dose not given beside the values; settings: concentration not given here
Target sequence in this assay (P41594 21-1212 limits assumed): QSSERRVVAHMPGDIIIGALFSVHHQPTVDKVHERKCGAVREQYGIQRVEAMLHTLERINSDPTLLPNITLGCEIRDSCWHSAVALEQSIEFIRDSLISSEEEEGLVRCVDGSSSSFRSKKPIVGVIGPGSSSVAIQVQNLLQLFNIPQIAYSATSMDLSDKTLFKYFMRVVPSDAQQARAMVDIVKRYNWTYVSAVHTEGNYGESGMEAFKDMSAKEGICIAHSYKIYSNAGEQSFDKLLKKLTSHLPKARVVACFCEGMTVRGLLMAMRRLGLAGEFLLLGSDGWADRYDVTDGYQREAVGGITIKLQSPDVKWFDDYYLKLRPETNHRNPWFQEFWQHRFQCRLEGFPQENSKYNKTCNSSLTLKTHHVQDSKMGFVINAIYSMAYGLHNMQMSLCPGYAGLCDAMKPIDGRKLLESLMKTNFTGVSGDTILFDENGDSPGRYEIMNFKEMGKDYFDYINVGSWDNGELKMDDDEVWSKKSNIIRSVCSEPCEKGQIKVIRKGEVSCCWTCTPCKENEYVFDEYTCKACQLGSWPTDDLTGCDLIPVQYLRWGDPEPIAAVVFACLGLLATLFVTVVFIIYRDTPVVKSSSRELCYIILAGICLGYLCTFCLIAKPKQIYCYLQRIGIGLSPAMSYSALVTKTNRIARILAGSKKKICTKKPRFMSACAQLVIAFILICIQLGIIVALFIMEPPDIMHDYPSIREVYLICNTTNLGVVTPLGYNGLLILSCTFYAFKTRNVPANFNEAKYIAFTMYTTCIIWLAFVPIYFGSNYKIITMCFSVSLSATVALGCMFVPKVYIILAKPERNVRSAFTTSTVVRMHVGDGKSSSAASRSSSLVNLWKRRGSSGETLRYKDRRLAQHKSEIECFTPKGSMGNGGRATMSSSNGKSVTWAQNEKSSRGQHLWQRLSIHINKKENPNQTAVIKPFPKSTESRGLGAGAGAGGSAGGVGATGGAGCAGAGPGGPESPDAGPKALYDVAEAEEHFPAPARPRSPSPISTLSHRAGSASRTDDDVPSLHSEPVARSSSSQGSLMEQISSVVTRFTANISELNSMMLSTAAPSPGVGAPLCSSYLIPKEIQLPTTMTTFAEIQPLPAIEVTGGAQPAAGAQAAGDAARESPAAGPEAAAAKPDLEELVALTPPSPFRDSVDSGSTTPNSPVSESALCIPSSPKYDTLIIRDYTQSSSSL

[2] = target: T1, Metabotropic glutamate receptor 5; experiment: Negative allosteric modulation of human mGlu5 receptor expressed in HEK293 cells assessed as inhibition of L-glutamate-induced activity after 1 hr by FLIPR assay
Target sequence in this assay (P41594 whole entry): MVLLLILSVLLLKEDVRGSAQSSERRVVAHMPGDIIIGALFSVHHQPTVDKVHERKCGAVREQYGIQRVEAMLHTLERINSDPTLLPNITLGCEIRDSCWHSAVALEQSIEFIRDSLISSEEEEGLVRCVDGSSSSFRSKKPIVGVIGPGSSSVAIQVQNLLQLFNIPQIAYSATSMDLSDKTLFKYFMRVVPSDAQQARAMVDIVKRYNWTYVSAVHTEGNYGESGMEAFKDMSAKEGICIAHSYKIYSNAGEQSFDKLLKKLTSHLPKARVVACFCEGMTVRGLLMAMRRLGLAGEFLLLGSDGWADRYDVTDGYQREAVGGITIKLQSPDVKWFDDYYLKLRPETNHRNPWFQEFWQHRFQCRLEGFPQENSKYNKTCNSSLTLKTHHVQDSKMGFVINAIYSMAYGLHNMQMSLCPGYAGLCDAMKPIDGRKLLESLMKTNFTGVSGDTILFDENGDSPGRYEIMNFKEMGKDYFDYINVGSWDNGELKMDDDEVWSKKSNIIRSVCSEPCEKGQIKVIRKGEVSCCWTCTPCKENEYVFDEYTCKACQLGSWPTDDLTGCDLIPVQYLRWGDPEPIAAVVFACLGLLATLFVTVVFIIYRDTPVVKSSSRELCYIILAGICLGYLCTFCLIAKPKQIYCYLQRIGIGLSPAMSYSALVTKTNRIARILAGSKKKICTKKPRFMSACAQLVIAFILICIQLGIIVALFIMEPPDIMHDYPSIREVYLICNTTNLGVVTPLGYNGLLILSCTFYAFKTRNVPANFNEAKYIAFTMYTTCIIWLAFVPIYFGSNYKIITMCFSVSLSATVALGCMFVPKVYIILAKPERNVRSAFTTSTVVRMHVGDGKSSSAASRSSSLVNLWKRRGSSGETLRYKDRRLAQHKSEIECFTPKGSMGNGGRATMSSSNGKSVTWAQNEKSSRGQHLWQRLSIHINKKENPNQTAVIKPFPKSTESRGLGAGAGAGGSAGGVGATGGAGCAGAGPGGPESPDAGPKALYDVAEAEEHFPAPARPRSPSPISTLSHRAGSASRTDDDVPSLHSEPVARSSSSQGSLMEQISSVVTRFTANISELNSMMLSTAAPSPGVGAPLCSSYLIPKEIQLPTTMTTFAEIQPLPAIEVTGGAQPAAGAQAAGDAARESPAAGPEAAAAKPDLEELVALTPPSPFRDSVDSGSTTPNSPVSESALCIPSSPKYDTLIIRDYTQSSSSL

[3] = target: T1, Metabotropic glutamate receptor 5; experiment: Positive allosteric modulation of human mGlu5 receptor expressed in HEK293 cells assessed as potentiation of L-glutamate-induced activity after 1 hr by FLIPR assay relative to control
Target sequence in this assay (P41594 21-1212 limits assumed): as the sequence (P41594 21-1212 limits assumed) above

[4] = target: T1, Metabotropic glutamate receptor 5; experiment: Positive allosteric modulation of human mGlu5 receptor expressed in HEK293 cells assessed as potentiation of L-glutamate-induced activity after 1 hr by FLIPR assay
Target sequence in this assay (P41594 whole entry): as the sequence (P41594 whole entry) above

Row | SMILES | inhibition [1] [%] | IC50 [2] [nM] | Emax [3] [%] | EC50 [4] [nM]
1 | O=C(N1CCC(F)CC1)N1CCc2nc(C#Cc3ccccc3)sc2C1 | 15 | > 10000 | 100 | 74
2 | O=C(c1cccc(C(F)(F)F)c1)N1CCc2nc(C#Cc3ccccc3)sc2C1 | 12 | > 10000 | 170 | 11
3 | Fc1cccc(C#Cc2nc3c(s2)CN(C2CCOC2)CC3)c1 (stereo not given) | 91 | 400 | -47 | > 10000
4 | Fc1cccc(C#Cc2nc3c(s2)CN(C2CCCC2)CC3)c1 | 94 | 640 | -44 | > 10000
5 | CC(C)S(=O)(=O)N1CCc2nc(C#Cc3ccccc3)sc2C1 | 75 | 11 | -4 | > 10000
6 | O=C(C1CC(F)(F)C1)N1CCc2nc(C#Cc3ccc(F)cc3)sc2C1 | 13 | > 10000 | 73 | 150
7 | O=C(CC1CCOCC1)N1CCc2nc(C#Cc3ccccc3)sc2C1 | -2 | > 10000 | 45 | 470
8 | CC1CC(C(=O)N2CCc3nc(C#Cc4cccc(F)c4)sc3C2)C1 (stereo not given) | 19 | > 10000 | 87 | 17
9 | CC(C)CN1CCc2nc(C#Cc3ccccc3)sc2C1 | 94 | 650 | -48 | > 10000
10 | O=C(C1CC(F)(F)C1)N1CCc2nc(C#Cc3cccc(F)c3)sc2C1 | 45 | > 10000 | 72 | 2.5
11 | CCC(=O)N1CCc2nc(C#Cc3ccccc3)sc2C1 | 79 | 38 | -17 | > 10000
12 | Cc1nc(C(=O)N2CCc3nc(C#Cc4ccccc4)sc3C2)cs1 | 3.7 | > 10000 | 110 | 220
13 | Fc1cccc(C#Cc2nc3c(s2)CN(C2CCC2)CC3)c1 | 91 | 200 | -40 | > 10000
14 | C(#Cc1nc2c(s1)CN(C1CCCCC1)CC2)c1ccccc1 | 1 | > 10000 | 19 | > 10000
15 | CN(C)S(=O)(=O)N1CCc2nc(C#Cc3ccccc3)sc2C1 | 71 | 5.7 | -6 | > 10000
16 | CN1CCc2nc(C#Cc3cccc(F)c3)sc2C1 | 6 | > 10000 | -8 | > 10000

Next, values leading:

Row | inhibition [1] [%] | IC50 [2] [nM] | Emax [3] [%] | EC50 [4] [nM] | SMILES
17 | 81 | 370 | 3 | > 10000 | O=C(C1CCC1)N1CCc2nc(C#Cc3ccccc3)sc2C1
18 | 0 | > 10000 | 80 | 190 | CC1CCC(C(=O)N2CCc3nc(C#Cc4ccccc4)sc3C2)CC1 (stereo not given)
19 | 79 | 90 | -18 | > 10000 | CC(=O)N1CCc2nc(C#Cc3ccccc3)sc2C1
20 | -1 | > 10000 | 89 | 790 | O=C(C1CCCO1)N1CCc2nc(C#Cc3ccccc3)sc2C1 (stereo not given)
21 | 38 | > 10000 | 61 | 85 | O=C(C1CC(F)C1)N1CCc2nc(C#Cc3ccccc3)sc2C1 (stereo not given)
22 | 13 | > 10000 | 120 | 81 | CC1CC(C(=O)N2CCc3nc(C#Cc4ccccc4)sc3C2)C1 (stereo not given)
23 | 6.3 | > 10000 | 42 | 9.4 | CC1CC1C(=O)N1CCc2nc(C#Cc3ccccc3)sc2C1 (stereo not given)
24 | 61 | 290 | -13 | > 10000 | O=C(C1CC1)N1CCc2nc(C#Cc3ccccc3)sc2C1
25 | 8 | > 10000 | 280 | 18 | O=C([C@H]1CC2CCC1C2)N1CCc2nc(C#Cc3ccccc3)sc2C1 (stereo not given in full)
